From ChEMBL document CHEMBL1148788 (J Med Chem, 2007)

Experiments:
[1] = target: T1, 5-hydroxytryptamine receptor 3A (Homo sapiens, UniProt P46098); assay: Displacement of [3H]GR65630 from human 5HT3A receptor in HEK293 cells; type: cell-based; details: for pKi: hek293
T1 sequence (P46098 whole entry): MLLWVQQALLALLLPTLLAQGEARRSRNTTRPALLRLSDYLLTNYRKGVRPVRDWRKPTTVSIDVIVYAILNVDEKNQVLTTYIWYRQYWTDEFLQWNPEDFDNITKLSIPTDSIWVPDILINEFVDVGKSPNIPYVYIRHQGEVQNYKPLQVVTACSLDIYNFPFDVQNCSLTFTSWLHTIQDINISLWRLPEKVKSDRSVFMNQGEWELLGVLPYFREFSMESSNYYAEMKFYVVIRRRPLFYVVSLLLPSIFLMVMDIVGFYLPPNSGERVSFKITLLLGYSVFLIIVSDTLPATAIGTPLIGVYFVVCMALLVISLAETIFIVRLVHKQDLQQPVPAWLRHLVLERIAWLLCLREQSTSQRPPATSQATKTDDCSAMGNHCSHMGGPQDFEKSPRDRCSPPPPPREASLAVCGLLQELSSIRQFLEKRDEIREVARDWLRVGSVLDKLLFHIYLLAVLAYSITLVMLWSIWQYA

[2] = target: T2, Neuronal acetylcholine receptor subunit alpha-7 (Homo sapiens, UniProt P36544); assay: Displacement of [3H]methyllycaconitine from human alpha-7 in tsA201 cells coexpressed with 5HT3A receptor; type: cell-based
[3] = target: T2, Neuronal acetylcholine receptor subunit alpha-7; assay: Displacement of [3H]methyllycaconitine from alpha7 nAChR in tsA201 cells co-expressed with Ric3; type: cell-based
[4] = target: T3, Neuronal acetylcholine receptor; alpha3/beta4 (Rattus norvegicus, UniProt P04757+P12392); assay: Displacement of [3H]epibatidine from recombinant rat alpha-3-beta-4 nAChr in HEK293 cell line; type: cell-based; details: for pKi: hek293
[5] = target: Neuronal acetylcholine receptor; alpha4/beta2 (Rattus norvegicus, UniProt P09483+P12390); assay: Displacement of [3H]epibatidine from rat recombinant alpha-4-beta-2 nAChR in HEK293 cell line; type: cell-based; details: for pKi: hek293; for Ki: read-out: Ki
[6] = target: Neuronal acetylcholine receptor; alpha4/beta4 (Rattus norvegicus, UniProt P09483+P12392); assay: Displacement of [3H]epibatidine from recombinant rat alpha-4-beta-4 nAChr in HEK293 cell line; type: cell-based; details: for pKi: hek293
[7] = cells; type: functional, cell-based; details: Homo sapiens, HEK293
[8] = target: T1, 5-hydroxytryptamine receptor 3A; assay: Antagonist activity at human 5HT3A receptor expressed in HEK293 cells by FMP assay; type: functional, cell-based; details: for pIC50: hek293
[9] = target: T3, Neuronal acetylcholine receptor; alpha3/beta4; assay: Antagonist activity at rat alpha3beta4 nAChR expressed in HEK293 cells by FMP assay; type: functional, cell-based, Homo sapiens; details: for pIC50: hek293
[10] = target: T4, Glycine receptor subunit alpha-1 (Homo sapiens, UniProt P23415); assay: Antagonist activity at human glycine alpha-1 receptor in HEK293 cells by FMP assay; type: functional, cell-based; details: for pIC50: hek293
T4 sequence (P23415 whole entry): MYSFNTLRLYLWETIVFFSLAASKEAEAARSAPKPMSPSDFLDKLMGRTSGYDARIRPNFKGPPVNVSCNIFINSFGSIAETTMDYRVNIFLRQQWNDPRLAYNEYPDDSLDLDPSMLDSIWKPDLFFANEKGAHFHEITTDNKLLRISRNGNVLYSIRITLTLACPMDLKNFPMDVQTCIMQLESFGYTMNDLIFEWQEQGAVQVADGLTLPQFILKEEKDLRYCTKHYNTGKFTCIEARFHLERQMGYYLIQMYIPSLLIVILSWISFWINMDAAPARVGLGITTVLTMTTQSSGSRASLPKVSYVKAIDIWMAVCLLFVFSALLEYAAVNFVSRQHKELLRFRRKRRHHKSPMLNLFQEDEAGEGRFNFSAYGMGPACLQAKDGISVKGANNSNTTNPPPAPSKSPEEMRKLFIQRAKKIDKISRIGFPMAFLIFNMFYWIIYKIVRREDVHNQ

[11] = target: T2, Neuronal acetylcholine receptor subunit alpha-7; assay: Antagonist activity at human alpha-7 nAChR in tsA201 cells coexpressed with Ric3 by FMP assay; type: functional, cell-based

Neuronal acetylcholine receptor; alpha4/beta2, sequence (P09483 whole entry): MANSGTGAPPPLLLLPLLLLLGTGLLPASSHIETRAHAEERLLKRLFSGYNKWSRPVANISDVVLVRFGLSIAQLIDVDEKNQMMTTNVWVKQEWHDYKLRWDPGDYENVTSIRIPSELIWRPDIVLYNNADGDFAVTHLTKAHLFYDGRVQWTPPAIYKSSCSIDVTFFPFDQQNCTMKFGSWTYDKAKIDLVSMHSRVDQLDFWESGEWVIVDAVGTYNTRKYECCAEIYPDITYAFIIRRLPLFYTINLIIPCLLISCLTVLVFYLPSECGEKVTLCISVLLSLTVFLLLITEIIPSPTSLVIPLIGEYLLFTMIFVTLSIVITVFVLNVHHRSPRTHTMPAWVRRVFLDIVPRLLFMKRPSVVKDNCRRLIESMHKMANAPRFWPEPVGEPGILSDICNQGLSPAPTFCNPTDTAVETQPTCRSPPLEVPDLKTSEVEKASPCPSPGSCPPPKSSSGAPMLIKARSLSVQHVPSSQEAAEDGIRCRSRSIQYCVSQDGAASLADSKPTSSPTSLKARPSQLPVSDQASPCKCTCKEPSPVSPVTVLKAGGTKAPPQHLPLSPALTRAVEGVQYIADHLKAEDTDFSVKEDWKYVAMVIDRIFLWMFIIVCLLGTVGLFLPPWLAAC
Neuronal acetylcholine receptor; alpha4/beta2, sequence (P12390 whole entry): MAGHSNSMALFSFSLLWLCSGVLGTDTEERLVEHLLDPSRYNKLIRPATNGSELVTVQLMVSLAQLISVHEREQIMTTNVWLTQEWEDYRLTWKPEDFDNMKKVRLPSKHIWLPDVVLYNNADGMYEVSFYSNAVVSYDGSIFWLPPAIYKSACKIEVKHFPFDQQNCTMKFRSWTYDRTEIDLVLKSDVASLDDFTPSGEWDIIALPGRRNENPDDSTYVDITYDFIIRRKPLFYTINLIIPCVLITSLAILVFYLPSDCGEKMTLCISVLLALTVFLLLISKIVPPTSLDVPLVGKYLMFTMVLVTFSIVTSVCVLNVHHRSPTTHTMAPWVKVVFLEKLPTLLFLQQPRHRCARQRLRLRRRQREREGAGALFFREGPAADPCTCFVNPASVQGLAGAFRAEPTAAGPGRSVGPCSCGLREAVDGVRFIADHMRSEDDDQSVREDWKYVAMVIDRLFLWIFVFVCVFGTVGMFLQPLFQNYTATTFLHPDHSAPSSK
Neuronal acetylcholine receptor; alpha4/beta4, sequence (P09483 whole entry): as the sequence (P09483 whole entry) above
Neuronal acetylcholine receptor; alpha4/beta4, sequence (P12392 whole entry): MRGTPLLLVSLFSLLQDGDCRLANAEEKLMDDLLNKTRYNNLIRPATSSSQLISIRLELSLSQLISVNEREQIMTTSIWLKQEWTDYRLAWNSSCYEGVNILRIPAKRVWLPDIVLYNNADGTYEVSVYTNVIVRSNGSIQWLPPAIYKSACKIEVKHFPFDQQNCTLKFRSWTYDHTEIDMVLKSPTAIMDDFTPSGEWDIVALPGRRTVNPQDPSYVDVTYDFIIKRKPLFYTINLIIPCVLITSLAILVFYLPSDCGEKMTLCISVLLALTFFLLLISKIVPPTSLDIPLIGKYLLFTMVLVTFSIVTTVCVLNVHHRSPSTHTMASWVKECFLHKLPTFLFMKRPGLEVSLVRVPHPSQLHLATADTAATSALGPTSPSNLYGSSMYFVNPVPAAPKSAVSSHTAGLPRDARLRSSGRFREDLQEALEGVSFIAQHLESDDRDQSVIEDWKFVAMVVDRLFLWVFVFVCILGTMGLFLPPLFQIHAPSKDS
T2 sequence (P36544 whole entry): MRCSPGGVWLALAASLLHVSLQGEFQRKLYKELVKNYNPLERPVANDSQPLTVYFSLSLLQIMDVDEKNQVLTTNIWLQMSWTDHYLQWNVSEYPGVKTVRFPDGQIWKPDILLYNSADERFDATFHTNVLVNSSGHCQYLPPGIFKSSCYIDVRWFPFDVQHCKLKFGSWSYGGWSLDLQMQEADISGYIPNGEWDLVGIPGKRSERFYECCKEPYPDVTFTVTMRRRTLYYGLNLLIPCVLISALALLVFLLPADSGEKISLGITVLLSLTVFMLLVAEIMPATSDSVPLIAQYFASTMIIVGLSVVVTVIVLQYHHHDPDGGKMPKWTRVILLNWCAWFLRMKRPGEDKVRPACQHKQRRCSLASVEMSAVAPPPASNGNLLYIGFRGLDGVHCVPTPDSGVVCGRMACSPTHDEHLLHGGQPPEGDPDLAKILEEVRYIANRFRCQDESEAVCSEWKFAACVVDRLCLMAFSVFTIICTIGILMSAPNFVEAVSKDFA
T3 sequence (P04757 whole entry): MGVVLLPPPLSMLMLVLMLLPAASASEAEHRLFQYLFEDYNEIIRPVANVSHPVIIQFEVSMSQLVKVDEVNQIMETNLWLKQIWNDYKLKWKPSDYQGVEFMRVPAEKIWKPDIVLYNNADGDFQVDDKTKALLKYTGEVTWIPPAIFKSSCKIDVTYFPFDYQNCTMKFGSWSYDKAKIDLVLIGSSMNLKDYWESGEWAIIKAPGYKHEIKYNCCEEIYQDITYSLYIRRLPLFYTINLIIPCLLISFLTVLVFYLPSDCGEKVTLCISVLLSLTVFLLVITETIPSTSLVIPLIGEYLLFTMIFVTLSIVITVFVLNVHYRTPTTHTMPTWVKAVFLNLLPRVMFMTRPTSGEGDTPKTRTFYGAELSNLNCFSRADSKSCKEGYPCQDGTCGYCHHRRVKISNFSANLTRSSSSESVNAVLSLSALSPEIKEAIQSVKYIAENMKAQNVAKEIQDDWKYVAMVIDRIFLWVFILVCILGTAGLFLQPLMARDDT
T3 sequence (P12392 whole entry): as the sequence (P12392 whole entry) above

Compound	Ki [1] [µM]	Ki ([2]; read-out: Ki) [µM]	Ki ([2]; read-out: pKi (converted)) [µM]	Ki ([3]; read-out: Ki) [µM]	Ki ([3]; read-out: pKi (converted)) [µM]	Ki [4] [µM]	pKi [4]	pKi [5]	Ki [5] [µM]	Ki [6] [µM]	pKi [6]	IC50 ([7]; read-out: IC50) [µM]	IC50 ([7]; read-out: pIC50 (converted)) [µM]	IC50 ([8]; read-out: IC50) [µM]	IC50 ([9]; read-out: IC50) [µM]	IC50 [10] [µM]	pIC50 [10]	IC50 ([11]; read-out: IC50) [µM]	IC50 ([11]; read-out: pIC50 (converted)) [µM]	pIC50 [9]	further results
CN(C)Cc1c2n(c3ccccc13)Cc1c(CN(C)C)c3ccccc3n1C2	> 100	19	20	5.4	5.01	> 100	< 4	< 4	> 100	> 100	< 4										pKi [1]: < 4
C/C=C/C[N+]12CC[C@@H]3[C@@H]4[C@@H]5[C@@H](OCC=C(C1)[C@@H]5C[C@@H]32)N1c2ccccc2[C@@]23CC[N+]5(C/C=C/C)CC6=CCO[C@H]([C@@H]([C@H]12)[C@H]6C[C@@H]35)N4c1ccccc1.[Br-].[Br-] (stereo partly specified)	15	0.23	0.251	0.1		100		< 4	> 100	> 100	< 4	> 100	> 100	100	100	> 100	< 4	1.1	1.15		pKi ([3]; tsa201): 7
COc1ccc(C[N+]23CC[C@@H]4[C@@H]5[C@@H]6[C@@H](OCC=C(C2)[C@@H]6C[C@@H]43)N2c3ccccc3[C@@]34CC[N+]6(Cc7ccc(OC)c(OC)c7)CC7=CCO[C@H]([C@@H]([C@H]23)[C@H]7C[C@@H]46)N5c2ccccc2)cc1OC.[Cl-].[Cl-] (stereo partly specified)	28	0.13	0.126	0.059	0.0631	> 100	< 4	< 4	> 100	> 100	< 4	> 100	> 100	30	> 100	> 100	< 4	1.3	1.32	< 4	
C1=C2CN3CC[C@@H]4[C@@H]5[C@H]([C@@H](OC1)N1c6ccccc6[C@@]67CCN8CC9=CCO[C@H]([C@@H]([C@H]16)[C@H]9C[C@H]87)N5c1ccccc1)[C@H]2C[C@@H]43	3.1	1.1		1.1	1	30		< 4	> 100	> 100	< 4	> 100	> 100	11	11	> 100	< 4	1.6	1.58		IC50 ([8]; read-out: pIC50 (converted)): 12.6 µM
Brc1ccc(C[N+]23CC[C@@H]4[C@@H]5[C@@H]6[C@@H](OCC=C(C2)[C@@H]6C[C@@H]43)N2c3ccccc3[C@@]34CC[N+]6(Cc7ccc(Br)cc7)CC7=CCO[C@H]([C@@H]([C@H]23)[C@H]7C[C@@H]46)N5c2ccccc2)cc1.[Br-].[Br-] (stereo partly specified)	5.7	0.26	0.251	0.64	0.631	> 100	< 4	< 4	> 100	> 100	< 4	> 100	> 100	30	> 100	> 100	< 4	10	10.5	< 4	
C=CC[N+]12CC[C@@]34c5ccccc5N5/C=C6/[C@H]7C[C@H]8[C@@]9(CC[N@@+]8(CC=C)C/C7=C/CO)c7ccccc7N(/C=C(/[C@@H](C[C@@H]31)/C(=C\CO)C2)[C@H]54)[C@@H]69 (stereo partly specified)	> 100	2.1	2	1.1	1	3.2		< 4	> 100	> 100	< 4	> 100	> 100	> 100	18	> 100	< 4	4.1	4.07		pKi [1]: < 4; pIC50 [8]: < 4; IC50 ([9]; read-out: pIC50 (converted)): 15.8 µM
OC/C=C1/C[N+]2(C3C=CCCC3)CC[C@@H]3[C@@H]4/C(=C\N5c6ccccc6[C@@]67CC[N+]8(C9C=CCCC9)CC9=CCO[C@H]([C@@H]([C@H]56)[C@H]9C[C@@H]78)N4c4ccccc4)[C@H]1C[C@@H]32.[Br-].[Br-] (stereo partly specified)	40	0.36	0.316	0.23	0.251	100		< 4	> 100	> 100	< 4	> 100	> 100	30	30	> 100	< 4	2.3	2.34		
C=CC[N+](C)(C)Cc1c2n(c3ccccc13)Cc1c(C[N+](C)(C)CC=C)c3ccccc3n1C2.[Br-].[Br-]	> 100	4.4	3.98	2.9	3.16	> 100	< 4	< 4	> 100	> 100	< 4	> 100	> 100	> 100	> 100	> 100	< 4	30	100	< 4	pKi [1]: < 4; pIC50 [8]: < 4
C1=C2C[N+]3(Cc4ccccc4)CC[C@@H]4[C@@H]5[C@H]([C@@H](OC1)N1c6ccccc6[C@@]67CC[N+]8(Cc9ccccc9)CC9=CCO[C@H]([C@@H]([C@H]16)[C@H]9C[C@@H]78)N5c1ccccc1)[C@H]2C[C@@H]43.[Br-].[Br-] (stereo partly specified)	100	0.2	0.2	0.25	0.251	> 100	< 4	< 4	> 100	> 100	< 4	> 100	> 100	100	> 100	> 100	< 4	4.5	4.47	< 4	
C=CC[N+]12CC[C@@H]3[C@@H]4[C@@H]5[C@@H](OCC=C(C1)[C@@H]5C[C@@H]32)N1c2ccccc2[C@@]23CCN5CC6=CCO[C@H]([C@@H]([C@H]12)[C@H]6C[C@H]53)N4c1ccccc1.[Br-] (stereo partly specified)	19	0.071		0.055	0.0501	> 100	< 4	< 4	> 100	> 100	< 4	> 100	> 100	30	30	> 100	< 4	0.34	0.339		
C1=C2C[N+]3(Cc4ccc5ccccc5c4)CC[C@@H]4[C@@H]5[C@H]([C@@H](OC1)N1c6ccccc6[C@@]67CC[N+]8(Cc9ccc%10ccccc%10c9)CC9=CCO[C@H]([C@@H]([C@H]16)[C@H]9C[C@@H]78)N5c1ccccc1)[C@H]2C[C@@H]43 (stereo partly specified)		0.36	0.316	0.71	0.631																
